The text below walks through data of article PMC10164576, “Interaction with the carboxy-terminal tip of SSB is critical for RecG function in E. coli” (Nucleic Acids Research, 2023).

Where a SMILES comes first, the peptide text is derived from it. Where no end group is shown, it is not given here. The star is where a group is joined. 6FAM = O=C1OC2(c3ccc(O)cc3Oc3cc(O)ccc32)c2cc(C(=O)*)ccc21 Where only a bound is given, the exact number is not on record here.

The subject of test [1] is SSB-interacting proteins (SIPs). The conditions noted are these: cited from earlier work. From the text: Most SSB-interacting proteins (SIPs) studied to date appear to share a conserved mode of SSB recognition in which they dock onto the SSB-Ct. Several SIPs have been co-crystalized with SSB-Ct peptides and their SSB-binding pockets have been validated in biochemical and/or genetic studies ([10],[12],[19],[20],[35]). SSB-Ct binding pockets have also been successfully predicted through computational methods ([36–39]). […] However, structural data ([31],[36],[108]) and predictions ([80]) reveal that the IDL is unstructured, and the length of IDLs across bacterial species varies greatly ([41]). […] Similarly, SSB fluorescent fusion proteins where GFP ...

The subject of test [2] is E. coli ssb mutant strains (ssbΔ151–166, ssbΔ139–164, ssbΔ130–166). The test can be described thus: DNA damage sensitivity spot plate assay of ssb IDL deletion strains. Format: cell-based. The conditions noted are these: ssbΔ151–166, ssbΔ139–164 and ssbΔ130–166 versus MG1655; LB plates, 37°C overnight.
Description: MG1655, recG, and ssb IDL mutant strains were tested for sensitivity to UV light, ciprofloxacin, or mitomycin C. A ΔrecA strain (EAW20) was used as a sensitive control in the ssb IDL experiments. Overnight cultures set in biological triplicate were used to inoculate fresh LB. Cells were grown at 37°C with shaking to an OD600 nm of 0.2 and serially diluted 10-fold in 1 × PBS. Ten μl of each dilution was spotted onto square LB agar plates (for UV) or LB plates containing DNA damaging agents (ciprofloxacin or mitomycin C) poured fresh and kept in the dark. UV sensitivity plates were exposed to shortwave light (254 nm) using a Spectrolinker XL-1000 UV crosslinker (Spectronics Corp) and incubated at 37°C overnight in the dark. Plates were imaged on an iBright Imaging System. […] Briefly, dilutions of each strain were plated onto an LB plate exposed to 0, 50 or 100 J/m^2. Plates were incubated under foil at 37°C overnight, and colonies were counted to obtain colony forming units (CFU)/ml and percent relative survival values. […]
(A) Spot plate assay showing growth of 10-fold serially diluted MG1655 (wildtype ssb), ΔrecA, ssbΔ151–166, ssbΔ139–164, ssbΔ130–166, and ssbΔ120–166 strains exposed to varying UV (top), ciprofloxacin (center), or mitomycin C (bottom) doses. (B) Quantification of strain UV percent survival relative to CFU/ml of the strain at no UV exposure.
A further test deals with AlkB protein. The conditions noted are these: peptide identical to IDL residues 152–169; cited from earlier work. From the text: The IDL peptide that was used included residues 152–169 of SSB, which has two of the three PxxP motifs in E. coli SSB.
The next test concerns the target T1, RecG (WT) (Escherichia coli, UniProt P24230).
T1 construct: RecG was expressed in STL2669/pT7pol26 (a gift from Dr Susan Lovett, Brandeis University) with overexpression plasmid pEAW111; made in house; host or cells: E. coli STL2669/pT7pol26
Nature of the test: Fluorescence anisotropy binding of 6-FAM-labelled SSB peptides to wildtype RecG. More on the design: species or system E. coli. The conditions noted are these: read-out: FP K D; WT RecG; fluorescence anisotropy; 10 nM N-terminal 6-FAM peptide; 0.2 M potassium glutamate, 25 mM Tris-acetate pH 7.6, 10 mM magnesium acetate; 30 min at room temperature, read at 25°C; one site fit; triplicate. How it is done: SSB peptides (sequences listed in Figure 2) were designed with an N-terminal tryptophan residue for quantification and N-terminal 6-FAM label (Genscript). RecG was incubated with 0.2 M potassium glutamate, 1 mM DTT, 0.1 μg/ml BSA, 1 × RecA buffer (25 mM Tris-acetate, pH 7.6, 5% w/v glycerol, 3 mM potassium glutamate, 10 mM magnesium acetate, 1 mM DTT), and 10 nM labeled peptide at room temperature for 30 min. Fluorescence polarization (FP) values were measured at 25°C using a Beacon 2000 Fluorescence Polarization System. Polarization values were normalized to the FP value measured at 0 nM RecG. Normalized FP was converted to normalized anisotropy. Experiments were performed in triplicate, and the data were fit to a one site binding model (, where X is ligand concentration, Y is normalized anisotropy, Bmax is the maximum anisotropy, and KD is the dissociation constant) using GraphPad Prism Software.
Figure 2. RecG binds directly and specifically to the SSB-Ct. (A) Fluorescence anisotropy binding isotherms for RecG binding to SSB-Ct (black), SSB113 (violet), SSBΔF (blue), or SSB IDL (green) peptides. Peptide sequences are listed in parentheses with * representing an N-terminal 6-FAM label. Anisotropy values are normalized to the reading at 0 μM RecG. […] (B–E) ITC analysis of RecG/SSB binding. Thermograms (top) and binding isotherms (bottom) of titrations of (B) full-length SSB, (C) SSB-Ct peptide, (D) SSBΔF or (E) SSBΔF peptide into RecG solutions.
Two models explaining how RecG interacts with SSB have been proposed - RecG could interact with the SSB-Ct ([29]) or RecG could interact with the IDL ([48],[49]). To begin testing each model, we used an equilibrium fluorescence anisotropy assay to measure RecG binding to fluorescently labeled SSB-Ct or IDL peptides (Figure 2). Titration of RecG with the SSB-Ct peptide led to an increase in fluorescence anisotropy, which occurs when protein binding slows the tumbling rate of a labeled peptide ([90]). […] KD values in the low micromolar range are typical for SSB/SIP complexes ([10],[12–14],[19],[23]). […]
(In general: Polarisation of emitted light reports the rotation of a fluorescent probe.)

The target of test [3] is SSBΔF peptide, 6-FAM labelled (E. coli). Nature of the test: fluorescence polarisation; RecG titrated against 10 nM 6-FAM peptide; 0.2 M potassium glutamate, 1 mM DTT, 0.1 μg/ml BSA, 1x RecA buffer (25 mM Tris-acetate pH 7.6, 5% glycerol, 10 mM magnesium acetate); 30 min at room temperature, read at 25°C; one site binding model, triplicate.
In test [4] the target is SSB113 peptide, 6-FAM labelled (E. coli) (UniProt P0AGE0). The description is as above.
In another test the target is T2, RecG R95A (E. coli, UniProt P24230 1-693, R95A).
T2 construct: RecG DNA helicase, E. coli, R95A introduced into pEAW111 to give pEAW1324; The preparation included a very weak nickase contaminant; source: E. coli STL2669/pT7pol26 with pEAW1324, purified (same scheme as wildtype RecG)
T2 sequence (looked up): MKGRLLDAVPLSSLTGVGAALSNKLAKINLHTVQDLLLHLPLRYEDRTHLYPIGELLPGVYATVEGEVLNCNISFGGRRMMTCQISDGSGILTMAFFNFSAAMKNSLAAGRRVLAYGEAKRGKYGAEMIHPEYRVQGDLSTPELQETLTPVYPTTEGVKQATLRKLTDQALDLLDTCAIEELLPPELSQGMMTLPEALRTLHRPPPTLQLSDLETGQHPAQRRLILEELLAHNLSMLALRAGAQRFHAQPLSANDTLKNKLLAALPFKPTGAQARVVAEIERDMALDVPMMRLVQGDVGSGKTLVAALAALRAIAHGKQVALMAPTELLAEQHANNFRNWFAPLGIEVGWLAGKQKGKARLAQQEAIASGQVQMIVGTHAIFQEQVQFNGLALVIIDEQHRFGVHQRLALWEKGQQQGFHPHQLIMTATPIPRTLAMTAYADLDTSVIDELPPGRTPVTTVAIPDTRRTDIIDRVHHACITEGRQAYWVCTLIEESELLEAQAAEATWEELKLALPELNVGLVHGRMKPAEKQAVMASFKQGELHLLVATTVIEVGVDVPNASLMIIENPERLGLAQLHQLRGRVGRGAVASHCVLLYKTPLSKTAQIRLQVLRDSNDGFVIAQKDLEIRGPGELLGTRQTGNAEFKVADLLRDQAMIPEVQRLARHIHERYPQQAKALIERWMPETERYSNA
The test is described as above. The conditions noted are these: both partners purified.

Test [5] addresses T3, RecG DNA helicase, wildtype (E. coli, UniProt P24230 1-693).
T3 construct: RecG DNA helicase, E. coli, expressed from overexpression plasmid pEAW111; No tag is mentioned; also called WT RecG; source: E. coli STL2669/pT7pol26 with pEAW111, purified (ammonium sulfate, DEAE, Source 15Q, Source 15S)
T3 sequence (looked up): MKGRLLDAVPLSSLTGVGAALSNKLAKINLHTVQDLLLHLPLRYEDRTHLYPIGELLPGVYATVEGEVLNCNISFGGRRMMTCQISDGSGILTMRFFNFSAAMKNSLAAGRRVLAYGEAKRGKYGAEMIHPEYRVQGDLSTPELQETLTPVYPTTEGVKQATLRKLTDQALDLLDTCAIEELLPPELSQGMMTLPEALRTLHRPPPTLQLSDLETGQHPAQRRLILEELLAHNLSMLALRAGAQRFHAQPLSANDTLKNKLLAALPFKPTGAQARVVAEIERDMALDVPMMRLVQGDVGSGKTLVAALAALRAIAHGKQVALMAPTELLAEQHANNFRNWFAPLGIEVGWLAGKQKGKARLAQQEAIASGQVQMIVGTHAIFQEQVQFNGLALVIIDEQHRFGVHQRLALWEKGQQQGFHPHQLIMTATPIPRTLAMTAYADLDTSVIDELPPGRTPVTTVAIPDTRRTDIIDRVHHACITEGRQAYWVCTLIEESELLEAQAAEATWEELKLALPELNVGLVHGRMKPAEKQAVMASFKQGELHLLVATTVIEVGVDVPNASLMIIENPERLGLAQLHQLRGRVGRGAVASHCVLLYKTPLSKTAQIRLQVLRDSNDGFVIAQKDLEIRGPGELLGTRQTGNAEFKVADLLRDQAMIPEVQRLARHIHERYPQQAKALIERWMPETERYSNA
The test is described as above. The conditions noted are these: both partners purified.

SSB113 peptide, 6-FAM labelled (E. coli), sequence (P0AGE0 whole entry, looked up): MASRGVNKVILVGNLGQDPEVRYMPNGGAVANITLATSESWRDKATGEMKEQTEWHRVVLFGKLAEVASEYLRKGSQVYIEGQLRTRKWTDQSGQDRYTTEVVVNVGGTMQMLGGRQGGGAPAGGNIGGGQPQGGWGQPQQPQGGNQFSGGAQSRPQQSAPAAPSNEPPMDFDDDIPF

With “SSBΔF: SSB protein variant lacking the C-terminal-most Phe residue”, the “interaction with SIPs, in words (SSB-Ct deletions)” value in test [1] (in vitro) was “eliminates interactions between SSB and SIPs in vitro”.

`O=C(O)c1cn(C2CC2)c2cc(N3CCNCC3)c(F)cc2c1=O` [ciprofloxacin]: the “DNA damage sensitivity of ssb IDL deletion strains, in words” value in test [2] is reported as “no change in DNA damage sensitivity compared to MG1655”. On to `CO[C@@]12[C@H](COC(N)=O)C3=C(C(=O)C(C)=C(N)C3=O)N1C[C@@H]1N[C@@H]12` [mitomycin C], for which the “DNA damage sensitivity of ssb IDL deletion strains, in words” value in test [2] was “no change in DNA damage sensitivity compared to MG1655”. With `C[C@H](NC(=O)[C@H](Cc1c[nH]c2ccccc12)NC(=O)c1ccc2c(c1)C1(OC2=O)c2ccc(O)cc2Oc2cc(O)ccc21)C(=O)N[C@@H](CCC(N)=O)C(=O)N[C@@H](CO)C(=O)N[C@@H](CCCNC(=N)N)C(=O)N1CCC[C@H]1C(=O)N[C@@H](CCC(N)=O)C(=O)N[C@@H](CCC(N)=O)C(=O)N[C@@H](CO)C(=O)N[C@@H](C)C(=O)N1CCC[C@H]1C(=O)N[C@@H](C)C(=O)N[C@@H](C)C(=O)N1CCC[C@H]1C(=O)N[C@@H](CO)C(=O)N[C@@H](CC(N)=O)C(=O)N[C@@H](CCC(=O)O)C(=O)N1CCC[C@H]1C(=O)O` [IDL 152–169 peptide] (6FAM-WAQSRPQQSAPAAPSNEP-OH; C-terminus assumed), the “binding to AlkB, in words” value in the test with AlkB protein is given as “previously reported to bind to the AlkB protein”. Besides, at RecG (WT), the Kd was greater than 30 µM. For the molecule “SSB113 protein: SSB with a Ser for the penultimate Pro of the SSB-Ct (ssb-113 mutation)”, the “affinity for SIPs, in words” value in test [1] (SSB113) is on record as “greatly reduced affinity for SIPs”.

B1: RecG DNA helicase, wildtype (enzyme)
chain: MKGRLLDAVPLSSLTGVGAALSNKLAKINLHTVQDLLLHLPLRYEDRTHLYPIGELLPGVYATVEGEVLNCNISFGGRRMMTCQISDGSGILTMRFFNFSAAMKNSLAAGRRVLAYGEAKRGKYGAEMIHPEYRVQGDLSTPELQETLTPVYPTTEGVKQATLRKLTDQALDLLDTCAIEELLPPELSQGMMTLPEALRTLHRPPPTLQLSDLETGQHPAQRRLILEELLAHNLSMLALRAGAQRFHAQPLSANDTLKNKLLAALPFKPTGAQARVVAEIERDMALDVPMMRLVQGDVGSGKTLVAALAALRAIAHGKQVALMAPTELLAEQHANNFRNWFAPLGIEVGWLAGKQKGKARLAQQEAIASGQVQMIVGTHAIFQEQVQFNGLALVIIDEQHRFGVHQRLALWEKGQQQGFHPHQLIMTATPIPRTLAMTAYADLDTSVIDELPPGRTPVTTVAIPDTRRTDIIDRVHHACITEGRQAYWVCTLIEESELLEAQAAEATWEELKLALPELNVGLVHGRMKPAEKQAVMASFKQGELHLLVATTVIEVGVDVPNASLMIIENPERLGLAQLHQLRGRVGRGAVASHCVLLYKTPLSKTAQIRLQVLRDSNDGFVIAQKDLEIRGPGELLGTRQTGNAEFKVADLLRDQAMIPEVQRLARHIHERYPQQAKALIERWMPETERYSNA
B1: the Kd was greater than 30 µM in test [3] and 23 µM in test [4].

B2: SSB-Ct peptide, 6-FAM labelled (peptide)
peptide: 6FAM-WMDFDDDIPF
notes: N-terminal tryptophan residue added for quantification; C-terminal tip of SSB, E. coli; also called fluorescently labeled SSB-Ct peptide; source: synthetic peptide (Genscript)
For the molecule B2, the results for the Kd (with RecG R95A; in test [5]) were 1.8 ± 0.4 µM and 3.1 ± 0.4 µM, respectively.
